Assay [1] has as its target T1, Acyl-CoA dehydrogenase family member 11 (Homo sapiens, UniProt Q709F0).
T1 sequence (Q709F0 whole entry): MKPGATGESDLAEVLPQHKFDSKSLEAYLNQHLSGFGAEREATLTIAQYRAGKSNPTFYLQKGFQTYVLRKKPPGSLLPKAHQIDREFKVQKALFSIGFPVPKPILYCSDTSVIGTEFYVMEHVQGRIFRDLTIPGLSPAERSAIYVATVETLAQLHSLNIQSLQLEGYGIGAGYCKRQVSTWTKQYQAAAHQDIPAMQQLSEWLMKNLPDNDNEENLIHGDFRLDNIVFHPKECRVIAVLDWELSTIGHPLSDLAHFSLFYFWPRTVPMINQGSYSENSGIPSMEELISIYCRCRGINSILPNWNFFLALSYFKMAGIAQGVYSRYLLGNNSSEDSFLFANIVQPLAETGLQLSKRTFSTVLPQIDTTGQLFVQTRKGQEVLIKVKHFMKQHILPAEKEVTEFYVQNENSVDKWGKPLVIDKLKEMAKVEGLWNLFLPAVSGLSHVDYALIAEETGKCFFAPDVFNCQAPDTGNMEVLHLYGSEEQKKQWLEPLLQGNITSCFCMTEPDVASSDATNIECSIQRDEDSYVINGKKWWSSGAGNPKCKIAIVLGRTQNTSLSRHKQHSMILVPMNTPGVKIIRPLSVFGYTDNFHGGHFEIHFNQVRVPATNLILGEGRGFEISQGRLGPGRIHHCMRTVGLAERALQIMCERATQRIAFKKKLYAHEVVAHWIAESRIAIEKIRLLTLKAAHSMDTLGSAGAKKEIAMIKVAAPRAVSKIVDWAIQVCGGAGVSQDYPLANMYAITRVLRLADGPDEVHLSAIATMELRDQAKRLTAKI

Assay [2] concerns the target RAC-alpha serine/threonine-protein kinase (Homo sapiens, UniProt P31749).
The target of assay [3] is T2, Cysteine--tRNA ligase, cytoplasmic (Homo sapiens, UniProt P49589).
T2 sequence (P49589 whole entry): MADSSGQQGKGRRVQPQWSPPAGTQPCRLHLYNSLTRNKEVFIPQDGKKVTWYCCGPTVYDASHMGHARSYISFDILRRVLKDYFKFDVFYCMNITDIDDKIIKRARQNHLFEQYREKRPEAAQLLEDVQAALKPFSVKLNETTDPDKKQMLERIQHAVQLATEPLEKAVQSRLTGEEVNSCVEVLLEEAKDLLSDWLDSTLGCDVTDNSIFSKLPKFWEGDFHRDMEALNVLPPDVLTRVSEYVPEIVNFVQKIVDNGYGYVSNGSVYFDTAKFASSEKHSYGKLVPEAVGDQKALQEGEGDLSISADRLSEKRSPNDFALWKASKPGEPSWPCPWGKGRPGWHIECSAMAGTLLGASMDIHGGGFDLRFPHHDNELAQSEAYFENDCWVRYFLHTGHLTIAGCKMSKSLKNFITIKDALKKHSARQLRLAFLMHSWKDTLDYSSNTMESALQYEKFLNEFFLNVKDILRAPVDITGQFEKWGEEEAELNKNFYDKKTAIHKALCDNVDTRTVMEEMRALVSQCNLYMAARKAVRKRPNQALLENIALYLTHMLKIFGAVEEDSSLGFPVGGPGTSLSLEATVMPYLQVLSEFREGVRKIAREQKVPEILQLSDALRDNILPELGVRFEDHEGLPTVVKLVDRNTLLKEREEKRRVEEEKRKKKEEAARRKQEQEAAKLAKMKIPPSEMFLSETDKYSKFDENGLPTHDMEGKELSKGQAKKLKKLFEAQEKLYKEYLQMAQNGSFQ

For assay [4], the target named is Cyclin-dependent kinase 6 (Homo sapiens, UniProt Q00534).
Chain of Cyclin-dependent kinase 6 (Q00534 whole entry): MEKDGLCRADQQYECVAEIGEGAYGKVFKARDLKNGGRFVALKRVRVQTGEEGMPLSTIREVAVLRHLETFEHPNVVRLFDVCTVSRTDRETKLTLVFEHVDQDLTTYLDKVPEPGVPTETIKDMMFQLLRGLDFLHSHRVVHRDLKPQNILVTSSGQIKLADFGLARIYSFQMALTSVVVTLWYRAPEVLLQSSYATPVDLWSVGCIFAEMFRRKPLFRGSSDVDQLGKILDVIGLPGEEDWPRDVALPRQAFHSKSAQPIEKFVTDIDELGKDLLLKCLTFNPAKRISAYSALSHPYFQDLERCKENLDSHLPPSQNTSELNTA
Assay [5] concerns the target Citron Rho-interacting kinase (Homo sapiens, UniProt O14578).
For assay [6], the target named is Dual specificity protein kinase CLK1 (Homo sapiens, UniProt P49759).
Chain of Dual specificity protein kinase CLK1 (P49759 whole entry): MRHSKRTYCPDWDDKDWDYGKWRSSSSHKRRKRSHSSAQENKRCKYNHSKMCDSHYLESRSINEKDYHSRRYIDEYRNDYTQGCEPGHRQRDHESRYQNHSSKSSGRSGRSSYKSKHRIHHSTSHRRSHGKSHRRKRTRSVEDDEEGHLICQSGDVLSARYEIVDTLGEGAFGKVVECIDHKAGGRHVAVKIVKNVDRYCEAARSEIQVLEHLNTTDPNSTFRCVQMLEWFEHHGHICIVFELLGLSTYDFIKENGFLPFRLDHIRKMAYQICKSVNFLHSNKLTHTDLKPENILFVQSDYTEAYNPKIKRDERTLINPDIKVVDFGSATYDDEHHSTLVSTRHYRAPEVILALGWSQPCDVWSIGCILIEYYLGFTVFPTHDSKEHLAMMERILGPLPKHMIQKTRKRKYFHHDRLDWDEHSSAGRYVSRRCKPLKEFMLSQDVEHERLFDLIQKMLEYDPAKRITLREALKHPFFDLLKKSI
Assay [7] addresses T3, ATP-dependent RNA helicase DDX42 (Homo sapiens, UniProt Q86XP3).
T3 sequence (Q86XP3 whole entry): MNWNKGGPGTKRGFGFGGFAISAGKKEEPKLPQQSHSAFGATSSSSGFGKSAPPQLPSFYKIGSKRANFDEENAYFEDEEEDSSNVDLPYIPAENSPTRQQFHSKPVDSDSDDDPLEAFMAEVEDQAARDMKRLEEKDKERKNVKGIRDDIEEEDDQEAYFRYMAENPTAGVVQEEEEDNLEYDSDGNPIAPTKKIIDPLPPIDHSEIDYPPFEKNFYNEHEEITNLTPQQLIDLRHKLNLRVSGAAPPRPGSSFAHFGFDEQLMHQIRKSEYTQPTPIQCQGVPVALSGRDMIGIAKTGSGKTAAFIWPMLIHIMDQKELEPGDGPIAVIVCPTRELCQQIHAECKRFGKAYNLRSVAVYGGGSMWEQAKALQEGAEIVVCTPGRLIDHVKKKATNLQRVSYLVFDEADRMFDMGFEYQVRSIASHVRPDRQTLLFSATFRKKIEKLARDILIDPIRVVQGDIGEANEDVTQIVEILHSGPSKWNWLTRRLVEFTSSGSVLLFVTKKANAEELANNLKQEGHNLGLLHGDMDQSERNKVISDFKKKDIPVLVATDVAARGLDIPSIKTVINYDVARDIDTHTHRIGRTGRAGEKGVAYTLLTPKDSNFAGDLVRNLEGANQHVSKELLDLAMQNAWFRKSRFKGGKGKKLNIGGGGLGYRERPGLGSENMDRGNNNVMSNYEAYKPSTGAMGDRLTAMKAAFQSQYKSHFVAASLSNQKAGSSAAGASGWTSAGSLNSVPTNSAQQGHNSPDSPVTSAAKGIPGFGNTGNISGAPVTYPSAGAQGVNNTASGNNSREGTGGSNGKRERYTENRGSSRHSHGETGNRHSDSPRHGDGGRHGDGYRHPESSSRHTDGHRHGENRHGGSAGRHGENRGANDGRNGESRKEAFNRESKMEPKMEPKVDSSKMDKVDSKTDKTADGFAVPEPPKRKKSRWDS

For assay [8], the target named is Serine/threonine-protein kinase/endoribonuclease IRE1 (Homo sapiens, UniProt O75460).
Chain of Serine/threonine-protein kinase/endoribonuclease IRE1 (O75460 whole entry): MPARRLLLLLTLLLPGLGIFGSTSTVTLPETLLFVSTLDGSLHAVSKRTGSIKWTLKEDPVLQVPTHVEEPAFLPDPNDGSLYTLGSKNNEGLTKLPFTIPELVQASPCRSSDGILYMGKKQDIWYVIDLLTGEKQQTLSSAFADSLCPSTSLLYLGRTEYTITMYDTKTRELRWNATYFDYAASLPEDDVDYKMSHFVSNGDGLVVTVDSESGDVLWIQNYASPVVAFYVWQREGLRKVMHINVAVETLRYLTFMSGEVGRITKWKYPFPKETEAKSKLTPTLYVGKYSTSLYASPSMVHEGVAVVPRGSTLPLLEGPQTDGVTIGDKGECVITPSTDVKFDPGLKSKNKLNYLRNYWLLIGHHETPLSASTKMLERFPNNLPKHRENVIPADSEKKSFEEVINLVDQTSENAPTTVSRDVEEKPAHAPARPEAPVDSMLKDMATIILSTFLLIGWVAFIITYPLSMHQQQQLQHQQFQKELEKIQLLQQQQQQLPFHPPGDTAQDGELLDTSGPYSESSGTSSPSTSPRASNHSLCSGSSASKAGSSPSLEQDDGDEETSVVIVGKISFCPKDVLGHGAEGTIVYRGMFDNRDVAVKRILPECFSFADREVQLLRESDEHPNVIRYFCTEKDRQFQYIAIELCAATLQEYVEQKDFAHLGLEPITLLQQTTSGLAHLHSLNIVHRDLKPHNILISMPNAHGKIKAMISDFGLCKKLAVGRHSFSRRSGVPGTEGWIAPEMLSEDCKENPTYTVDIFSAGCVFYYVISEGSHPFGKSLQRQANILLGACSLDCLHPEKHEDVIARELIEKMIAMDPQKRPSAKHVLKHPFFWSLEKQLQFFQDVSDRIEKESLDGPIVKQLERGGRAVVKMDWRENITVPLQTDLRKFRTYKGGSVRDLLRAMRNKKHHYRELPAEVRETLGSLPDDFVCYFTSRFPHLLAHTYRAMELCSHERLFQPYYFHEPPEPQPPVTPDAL
For assay [9], the target named is Insulin-like growth factor 1 receptor (Homo sapiens, UniProt P08069).
Chain of Insulin-like growth factor 1 receptor (P08069 31-736 limits assumed): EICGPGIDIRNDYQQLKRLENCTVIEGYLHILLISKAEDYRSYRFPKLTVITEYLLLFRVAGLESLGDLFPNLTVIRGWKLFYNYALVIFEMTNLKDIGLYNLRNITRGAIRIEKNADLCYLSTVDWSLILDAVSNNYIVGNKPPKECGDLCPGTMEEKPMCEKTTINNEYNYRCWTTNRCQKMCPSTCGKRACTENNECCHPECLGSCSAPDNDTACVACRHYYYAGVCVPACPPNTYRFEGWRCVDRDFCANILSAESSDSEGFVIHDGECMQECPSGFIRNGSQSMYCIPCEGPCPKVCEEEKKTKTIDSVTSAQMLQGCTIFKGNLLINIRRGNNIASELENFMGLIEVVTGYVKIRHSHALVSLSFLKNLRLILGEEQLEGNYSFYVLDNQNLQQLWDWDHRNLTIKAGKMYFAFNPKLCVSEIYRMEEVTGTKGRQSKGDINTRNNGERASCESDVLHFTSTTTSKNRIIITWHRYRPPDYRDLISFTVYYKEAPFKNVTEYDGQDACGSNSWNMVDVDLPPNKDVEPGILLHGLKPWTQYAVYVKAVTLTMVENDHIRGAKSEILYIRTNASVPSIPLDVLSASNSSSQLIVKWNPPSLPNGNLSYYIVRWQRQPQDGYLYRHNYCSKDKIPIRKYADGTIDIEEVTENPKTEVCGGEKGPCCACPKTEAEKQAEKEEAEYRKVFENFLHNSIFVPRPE
Chain of Insulin-like growth factor 1 receptor (P08069 741-1367 limits assumed): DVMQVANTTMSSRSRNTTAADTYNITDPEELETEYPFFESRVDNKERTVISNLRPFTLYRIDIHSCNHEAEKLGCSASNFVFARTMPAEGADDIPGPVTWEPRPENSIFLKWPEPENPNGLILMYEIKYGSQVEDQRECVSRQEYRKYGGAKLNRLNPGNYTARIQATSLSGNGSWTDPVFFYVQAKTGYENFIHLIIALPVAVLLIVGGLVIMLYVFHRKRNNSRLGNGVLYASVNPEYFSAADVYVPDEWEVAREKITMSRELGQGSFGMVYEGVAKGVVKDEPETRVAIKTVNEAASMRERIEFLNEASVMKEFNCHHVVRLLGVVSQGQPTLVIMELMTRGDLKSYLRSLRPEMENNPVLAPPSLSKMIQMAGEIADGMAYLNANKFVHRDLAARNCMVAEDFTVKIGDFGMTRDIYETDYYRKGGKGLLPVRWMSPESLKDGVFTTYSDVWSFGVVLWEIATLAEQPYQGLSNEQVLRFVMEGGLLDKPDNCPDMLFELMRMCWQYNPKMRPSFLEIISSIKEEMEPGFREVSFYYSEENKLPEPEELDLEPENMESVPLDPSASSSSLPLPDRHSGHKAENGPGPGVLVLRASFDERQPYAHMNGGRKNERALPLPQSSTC
Assay [10] addresses Mitogen-activated protein kinase kinase kinase kinase 4 (Homo sapiens, UniProt O95819).
For assay [11], the target named is Serine/threonine-protein kinase 16 (Homo sapiens, UniProt O75716).
Chain of Serine/threonine-protein kinase 16 (O75716 whole entry): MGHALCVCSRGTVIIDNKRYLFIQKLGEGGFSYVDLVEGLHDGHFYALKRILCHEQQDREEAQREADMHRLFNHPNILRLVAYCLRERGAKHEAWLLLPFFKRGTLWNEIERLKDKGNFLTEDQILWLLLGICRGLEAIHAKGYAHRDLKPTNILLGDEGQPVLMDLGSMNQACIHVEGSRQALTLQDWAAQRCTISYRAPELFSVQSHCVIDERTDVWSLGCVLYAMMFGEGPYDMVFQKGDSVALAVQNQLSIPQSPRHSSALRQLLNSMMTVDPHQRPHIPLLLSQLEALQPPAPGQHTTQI

The values that follow come from ChEMBL document CHEMBL3991601, “The target landscape of clinical kinase drugs” (Science, 2017).

The source made the active and inactive calls. For most assays here, no stated cut-off is given here; in the data, actives have a measured Kd and inactives only a lower limit. A value given as a limit tells only on which side of the number the result lay.

Chain of RAC-alpha serine/threonine-protein kinase (P31749 whole entry): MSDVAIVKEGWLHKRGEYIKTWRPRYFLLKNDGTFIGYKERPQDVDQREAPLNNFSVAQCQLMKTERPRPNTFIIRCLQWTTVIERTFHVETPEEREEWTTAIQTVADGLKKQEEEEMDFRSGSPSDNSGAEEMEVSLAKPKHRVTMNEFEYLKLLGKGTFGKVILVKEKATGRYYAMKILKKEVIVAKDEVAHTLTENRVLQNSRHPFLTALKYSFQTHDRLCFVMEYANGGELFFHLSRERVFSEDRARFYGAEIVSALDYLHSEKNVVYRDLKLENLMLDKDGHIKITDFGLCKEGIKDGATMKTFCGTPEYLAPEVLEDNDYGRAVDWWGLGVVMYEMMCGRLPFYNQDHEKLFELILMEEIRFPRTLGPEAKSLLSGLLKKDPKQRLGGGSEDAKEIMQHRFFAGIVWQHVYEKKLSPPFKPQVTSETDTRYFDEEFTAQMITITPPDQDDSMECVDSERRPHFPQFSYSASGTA

As to `Cc1cc(Nc2nc(N[C@@H](C)c3ncc(F)cn3)ncc2Cl)n[nH]1` [AZD-1480], the Kd in assay [1], in assay [2], in [3], in assay [4], in assay [5] and in assay [6] was > 30 µM (inactive) each time. The Kd in assay [7], in assay [8], in [9], in assay [10] and in assay [11] was > 30 µM (inactive) throughout.
Regarding `Cc1ccc(C(=O)Nc2ccc(Oc3cc4cnn(C)c4cc3-c3cn[nH]c3)c(F)c2)c(=O)n1-c1ccc(F)cc1` [MERESTINIB], the Kd in assay [1], in assay [2], in [3], in [4], in assay [5] and in [6] was > 30 µM (inactive) in each case. Also, the Kd in [7], in [8], in [9], in assay [10] and in [11] was > 30 µM (inactive) throughout.
Turning to `C#Cc1cccc(Nc2ncnc3cc4c(cc23)OCCOCCOCCO4)c1` [ICOTINIB], the Kd is > 30 µM (inactive) in [1]; > 30 µM (inactive) in [2]; 0.652 µM (active) in [3]; > 30 µM (inactive) in assay [4]; > 30 µM (inactive) in assay [5]; > 30 µM (inactive) in assay [6]. Moreover, the Kd in assay [7], in assay [8], in assay [9], in assay [10] and in [11] was > 30 µM (inactive) each time.
On to `FC(F)(F)c1ccc(CNc2ccc(Cc3c[nH]c4ncc(Cl)cc34)cn2)cn1` [PEXIDARTINIB], for which the Kd in assay [1], in [2], in [3], in [4], in assay [5] and in assay [6] was > 30 µM (inactive) each time. Besides, the Kd in assay [7], in assay [8], in assay [9], in [10] and in assay [11] was > 30 µM (inactive) throughout.
As for `COc1cc2ncnc3c2cc1OCCCCCN(C)Cc1ccc(Br)cc1N3` [JNJ-26483327], the Kd in [1], in [2], in assay [3], in assay [4], in assay [5] and in assay [6] was > 30 µM (inactive) in each case. The Kd in assay [7], in assay [8], in assay [9], in assay [10] and in assay [11] was > 30 µM (inactive) each time.
Consider `CNC(=O)c1cccc(-c2ccc3c(N4CCOC[C@@H]4C)nc(N4CCOC[C@@H]4C)nc3n2)c1` [VISTUSERTIB], for which the Kd in [1], in assay [2], in [3], in [4], in assay [5] and in assay [6] was > 30 µM (inactive) throughout. The Kd in assay [7], in [8], in [9], in assay [10] and in assay [11] was > 30 µM (inactive) in each case.
Consider `CC1(COc2ccc3c(c2)ncn3-c2ccc3cccc(N4CCC(N)CC4)c3n2)COC1` [CRENOLANIB], for which the Kd in assay [1], in assay [2], in [3], in assay [4], in assay [5] and in [6] was > 30 µM (inactive) in each case. Besides, the Kd in assay [7] is > 30 µM (inactive); in [8] it was > 30 µM (inactive); in assay [9], > 30 µM (inactive); in assay [10], 0.282 µM (active); in assay [11], > 30 µM (inactive).
As for `NC(=O)c1ccc(N(C(N)=O)c2c(F)cccc2F)nc1-c1ccc(F)cc1F` [VX-702], the Kd in assay [1], in assay [2], in [3], in assay [4], in assay [5] and in assay [6] was > 30 µM (inactive) each time. Further, the Kd in assay [7], in assay [8], in [9], in assay [10] and in [11] was > 30 µM (inactive) each time.
Turning to `C=CC(=O)Nc1cc(Nc2nccc(-c3cn(C)c4ccccc34)n2)c(OC)cc1N(C)CCN(C)C` [OSIMERTINIB], the Kd in assay [2] is > 30 µM (inactive); in assay [3], 0.012 µM; in assay [4] it was > 30 µM (inactive); in assay [5], > 30 µM (inactive); in [6], > 30 µM (inactive); in assay [7], > 30 µM (inactive). For the same compound, the Kd in assay [8], in assay [9], in assay [10] and in [11] was > 30 µM (inactive) in each case.
With `CC(C)(O)CC(=O)NCCn1ccc2ncnc(Nc3ccc(Oc4cccc(C(F)(F)F)c4)c(Cl)c3)c21` [TAK-285], the Kd in [1], in assay [2], in [3], in assay [4], in [5] and in assay [6] was > 30 µM (inactive) throughout. The Kd in assay [7], in [8], in assay [9] and in assay [10] was > 30 µM (inactive) in each case.

As a reminder, the Kd is the equilibrium constant for the complex coming apart.
